The results in this text go back to patent US7901692B2, “Nontypeable Haemophilus influenzae virulence factors” (Nationalwide Children's Hospital, Inc., priority 2003, dated 2011).

In test [1] the test system is NTHi parent strain 86-028NP. In words: Broth minimal inhibitory concentration (MIC) analysis for protamine. It is filed as cell-based, nontypeable Haemophilus influenzae. The settings on record: aerobic growth in sBHI broth. As for the experimental part: (§1) Since the sap mutants of S. typhimurium and E. chrysanthemi were reported to be hypersensitive to certain antimicrobial peptides, sensitivity to several commercial available cationic peptides against the NTHi parent and the sapF mutant strains was analyzed. […] Broth minimal inhibitory concentration (MIC) analyses for protamine determined that the MIC of protamine for the sapF::mTn5 mutants was lower than that for the parent strain (0.2 mg/ml versus 0.4 mg/ml). […] Thus, the sapF gene product is not required for growth in enriched media, and the lack of growth of the sapF mutants at the lower protamine concentrations in sBHI broth was not due to a growth defect. Therefore, the sapF mutation may be responsible for the phenotype of increased sensitivity to protamine, and the in vivo attenuation property of the sapF mutant.

The test system of a further test is NTHi sapF::mTn5 mutants. The description is as above. It counts as cell-based, nontypeable Haemophilus influenzae.
Excerpt: To ensure no secondary mutation in the original sapF::mTn5 mutant contributed to the various phenotypes of this mutant, the parent strain 86-028NP was transformed with the 6 kb EcoRV fragment containing the sapF::mTn5 allele from the pBlueA1 plasmid. The wild type sapF gene was replaced in this strain by homologous recombination with the sapF::mTn5 allele. One Km resistant clone was confirmed to harbor a miniTn5 interrupted sapF gene by PCR and Southern blot analysis. This clone was further characterized together with the sapF::mTn5 strain and designated RcsapF::mTn5.
as §1

On to protamine, for which the MIC of protamine in test [1] stood at 0.4 mg/mL; in the test with NTHi sapF::mTn5 mutants (sapF::mTn5 mutants, aerobic growth in sBHI broth), 0.2 mg/mL. Also, the “sensitivity of mutant to the action of protamine” value with NTHi sapF::mTn5 mutants (sapF::mTn5 mutant, more sensitive (relative to parent strain)) came to 3 fold.
